Experiments:
Phospholipase A2 = Phospholipase A2 (Homo sapiens, UniProt P04054); assay: Inhibition of recombinant human secretory phospholipase A2 (sPLA2), chromogenic screening assay.
[1] = Inhibitory activity against recombinant human secretory phospholipase A2 (s-PLA2) by phosphatidylcholine/deoxycholate assay (PC/DOC).

Sequence of Phospholipase A2 (P04054 whole entry): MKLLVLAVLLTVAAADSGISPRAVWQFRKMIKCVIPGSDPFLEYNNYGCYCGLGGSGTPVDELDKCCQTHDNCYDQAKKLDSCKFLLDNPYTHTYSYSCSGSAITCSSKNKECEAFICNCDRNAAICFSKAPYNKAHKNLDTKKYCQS

IC50 (Phospholipase A2)	IC50 [1]	SMILES
83 nM	–	CCc1c(C(=O)C(N)=O)c2c(OCc3ccncc3)cccn2c1Cc1ccccc1-c1ccccc1 [2-[3-Biphenyl-2-ylmethyl-2-ethyl-8-(pyridin-4-ylmethoxy)-indolizin-1-yl]-2-oxo-acetamide]
21 nM	30 nM	CCc1c(C(=O)C(N)=O)c2c(OCC(=O)O)cccn2c1CC1CCCCC1 [(1-Aminooxalyl-3-cyclohexylmethyl-2-ethyl-indolizin-8-yloxy)-acetic acid]
6600 nM	–	CCc1c(C(=O)C(N)=O)c2c(OCC(=O)O)cccn2c1Cc1cc(C(C)(C)C)cc(C(C)(C)C)c1 [[1-Aminooxalyl-3-(3,5-di-tert-butyl-benzyl)-2-ethyl-indolizin-8-yloxy]-acetic acid]
13 nM	28 nM	CCc1c(CC(N)=O)c2c(OCC(=O)O)cccn2c1Cc1ccccc1 [(3-Benzyl-1-carbamoylmethyl-2-ethyl-indolizin-8-yloxy)-acetic acid]
8 nM	5 nM	CCc1c(C(=O)C(N)=O)c2c(OCC(=O)O)cccn2c1Cc1ccccc1 [(1-Aminooxalyl-3-benzyl-2-ethyl-indolizin-8-yloxy)-acetic acid]
280 nM	–	COC(=O)COc1cccn2c(Cc3ccccc3-c3ccccc3)c(C3CCCC3)c(C(=O)C(N)=O)c12 [(1-Aminooxalyl-3-biphenyl-2-ylmethyl-2-cyclopentyl-indolizin-8-yloxy)-acetic acid methyl ester]
6 nM	3 nM	CCc1c(C(=O)C(N)=O)c2c(OCC(=O)O)cccn2c1Cc1cccc(Cl)c1 [[1-Aminooxalyl-3-(3-chloro-benzyl)-2-ethyl-indolizin-8-yloxy]-acetic acid]
29 nM	88 nM	NC(=O)C(=O)c1c(C2CC2)c(CC2CCCC2)n2cccc(OCC(=O)O)c12 [(1-Aminooxalyl-3-cyclopentylmethyl-2-cyclopropyl-indolizin-8-yloxy)-acetic acid]
46 nM	49 nM	NC(=O)C(=O)c1c(C2CC2)c(Cc2ccccc2)n2cccc(OCC(=O)O)c12 [(1-Aminooxalyl-3-benzyl-2-cyclopropyl-indolizin-8-yloxy)-acetic acid]
1100 nM	–	CCc1c(Cc2ccccc2)c2ccc(OCCCC(=O)O)cn2c1C(=O)C(N)=O [4-(3-Aminooxalyl-1-benzyl-2-ethyl-indolizin-6-yloxy)-butyric acid]
11 nM	5 nM	CCCCc1ccc(Cc2c(CC)c(C(=O)C(N)=O)c3c(OCC(=O)O)cccn23)cc1 [[1-Aminooxalyl-3-(4-butyl-benzyl)-2-ethyl-indolizin-8-yloxy]-acetic acid]
8 nM	1.4 nM	COC(=O)COc1cccn2c(Cc3ccccc3-c3ccccc3)c(C)c(C(=O)C(N)=O)c12 [(1-Aminooxalyl-3-biphenyl-2-ylmethyl-2-methyl-indolizin-8-yloxy)-acetic acid methyl ester]
25 nM	20 nM	CCCCC[C@H]1CCCC(Cc2c(CC)c(C(=O)C(N)=O)c3c(OCC(=O)O)cccn23)C1 (stereo partly drawn) [[1-Aminooxalyl-2-ethyl-3-((S)-3-pentyl-cyclohexylmethyl)-indolizin-8-yloxy]-acetic acid]
6 nM	1.3 nM	CCc1c(C(=O)C(N)=O)c2c(OCC(=O)O)cccn2c1Cc1ccccc1Cc1ccccc1 [[1-Aminooxalyl-3-(2-benzyl-benzyl)-2-ethyl-indolizin-8-yloxy]-acetic acid]
38 nM	80 nM	CCc1c(C(=O)C(N)=O)c2c(OCC(=O)OC)cccn2c1C/C=C/c1ccccc1 [[1-Aminooxalyl-2-ethyl-3-((E)-3-phenyl-allyl)-indolizin-8-yloxy]-acetic acid methyl ester]
23 nM	200 nM	COC(=O)COc1cccn2c(Cc3cccc4ccccc34)c(C3CC3)c(C(=O)C(N)=O)c12 [(1-Aminooxalyl-2-cyclopropyl-3-naphthalen-1-ylmethyl-indolizin-8-yloxy)-acetic acid methyl ester]
21 nM	30 nM	CCc1c(C(=O)C(N)=O)c2c(OCC(=O)O)cccn2c1Cc1cccc(OC)c1 [[1-Aminooxalyl-2-ethyl-3-(3-methoxy-benzyl)-indolizin-8-yloxy]-acetic acid]
15 nM	13 nM	COc1c(C(=O)C(N)=O)c2c(OCC(=O)O)cccn2c1Cc1ccccc1-c1ccccc1 [(1-Aminooxalyl-3-biphenyl-2-ylmethyl-2-methoxy-indolizin-8-yloxy)-acetic acid]
17 nM	–	CCc1c(C(=O)C(N)=O)c2c(OCC(=O)OC)cccn2c1Cc1ccccc1-c1ccccc1 [(1-Aminooxalyl-3-biphenyl-2-ylmethyl-2-ethyl-indolizin-8-yloxy)-acetic acid methyl ester]
> 50000 nM	–	CCc1c(C(=O)C(=O)NC)c2c(OCC(=O)O)cccn2c1Cc1ccccc1 [(3-Benzyl-2-ethyl-1-methylaminooxalyl-indolizin-8-yloxy)-acetic acid]
14 nM	22 nM	Cc1c(C(=O)C(N)=O)c2c(OCC(=O)O)cccn2c1CC1CCCC1 [(1-Aminooxalyl-3-cyclopentylmethyl-2-methyl-indolizin-8-yloxy)-acetic acid]
5 nM	24 nM	CCc1c(C(=O)C(N)=O)c2c(OCC(=O)O)cccn2c1Cc1cccc2ccccc12 [(1-Aminooxalyl-2-ethyl-3-naphthalen-1-ylmethyl-indolizin-8-yloxy)-acetic acid]

IC50 (Phospholipase A2)	IC50 [1]	SMILES
14 nM	14 nM	CCc1c(CC(N)=O)c2c(OCC(=O)O)cccn2c1Cc1ccccc1-c1ccccc1 [(3-Biphenyl-2-ylmethyl-1-carbamoylmethyl-2-ethyl-indolizin-8-yloxy)-acetic acid]
51 nM	–	CCc1c(C(=O)C(N)=O)c2c(OCC(=O)OC)cccn2c1CCc1ccccc1 [(1-Aminooxalyl-2-ethyl-3-phenethyl-indolizin-8-yloxy)-acetic acid methyl ester]
4400 nM	–	NC(=O)C(=O)c1c(C2CC2)c(Cc2ccccc2-c2ccccc2)n2cccc(OCCCC(=O)O)c12 [4-(1-Aminooxalyl-3-biphenyl-2-ylmethyl-2-cyclopropyl-indolizin-8-yloxy)-butyric acid]
80 nM	–	CCc1c(CC(N)=O)c2c(OCCCC(=O)O)cccn2c1Cc1ccccc1-c1ccccc1 [4-(3-Biphenyl-2-ylmethyl-1-carbamoylmethyl-2-ethyl-indolizin-8-yloxy)-butyric acid]
23 nM	100 nM	CCc1c(C(=O)C(N)=O)c2c(OCC(=O)O)cccn2c1CC1CCCCCC1 [(1-Aminooxalyl-3-cycloheptylmethyl-2-ethyl-indolizin-8-yloxy)-acetic acid]
9 nM	4.2 nM	CCc1c(C(=O)C(N)=O)c2c(OCC(=O)OC)cccn2c1Cc1cccc(-c2ccccc2)c1 [(1-Aminooxalyl-3-biphenyl-3-ylmethyl-2-ethyl-indolizin-8-yloxy)-acetic acid methyl ester]
8 nM	3 nM	Cc1c(C(=O)C(N)=O)c2c(OCC(=O)O)cccn2c1Cc1ccccc1 [(1-Aminooxalyl-3-benzyl-2-methyl-indolizin-8-yloxy)-acetic acid]
1300 nM	–	CCc1c(C(=O)C(N)=O)c2c(OCCCCC(=O)O)cccn2c1Cc1ccccc1-c1ccccc1 [5-(1-Aminooxalyl-3-biphenyl-2-ylmethyl-2-ethyl-indolizin-8-yloxy)-pentanoic acid]
> 50000 nM	–	CCc1c(C(=O)C(=O)N(C)C)c2c(OCC(=O)O)cccn2c1Cc1ccccc1 [(3-Benzyl-1-dimethylaminooxalyl-2-ethyl-indolizin-8-yloxy)-acetic acid]
140 nM	–	CCc1c(C(=O)C(N)=O)c2cc(OCCCC(=O)O)ccn2c1Cc1ccccc1-c1ccccc1
1400 nM	–	CCc1c(C(=O)C(N)=O)c2cc(OCC(=O)O)ccn2c1Cc1ccccc1-c1ccccc1
62 nM	–	CCCCCc1c(CC)c(C(=O)C(N)=O)c2c(OCC(=O)O)cccn12 [(1-Aminooxalyl-2-ethyl-3-pentyl-indolizin-8-yloxy)-acetic acid]
16 nM	–	CSc1c(C(=O)C(N)=O)c2c(OCC(=O)O)cccn2c1Cc1ccccc1-c1ccccc1 [(1-Aminooxalyl-3-biphenyl-2-ylmethyl-2-methylsulfanyl-indolizin-8-yloxy)-acetic acid]
100 nM	–	COC(=O)COc1cccn2c(Cc3ccccc3-c3ccccc3)c(C(C)(C)C)c(C(=O)C(N)=O)c12 [(1-Aminooxalyl-3-biphenyl-2-ylmethyl-2-tert-butyl-indolizin-8-yloxy)-acetic acid methyl ester]
240 nM	–	CCc1c(C(=O)C(N)=O)c2cc(OCCC(=O)O)ccn2c1Cc1ccccc1-c1ccccc1
51 nM	–	CCc1c(C(=O)C(N)=O)c2c(OCC(=O)O)cccn2c1CCc1ccccc1 [(1-Aminooxalyl-2-ethyl-3-phenethyl-indolizin-8-yloxy)-acetic acid]
120 nM	–	Cc1c(C(=O)C(N)=O)c2c(OCC(=O)O)cccn2c1CC12C[C@H]3C[C@@H](C1)C[C@@H](C2)C3 [(3-Adamantan-1-ylmethyl-1-aminooxalyl-2-methyl-indolizin-8-yloxy)-acetic acid]
3400 nM	–	CCc1c(C(=O)C(N)=O)c2c(OCCCC(=O)O)cccn2c1CC1CCCCC1 [4-(1-Aminooxalyl-3-cyclohexylmethyl-2-ethyl-indolizin-8-yloxy)-butyric acid]
200 nM	–	CCc1c(C(=O)C(N)=O)c2c(OCCCC(=O)O)cccn2c1Cc1ccccc1 [4-(1-Aminooxalyl-3-benzyl-2-ethyl-indolizin-8-yloxy)-butyric acid]
46 nM	–	CCc1c(C(=O)C(N)=O)c2c(OCc3ccccn3)cccn2c1Cc1ccccc1-c1ccccc1 [2-[3-Biphenyl-2-ylmethyl-2-ethyl-8-(pyridin-2-ylmethoxy)-indolizin-1-yl]-2-oxo-acetamide]
35 nM	–	COC(=O)COc1cccn2c(Cc3ccccc3-c3ccccc3)c(C(C)C)c(C(=O)C(N)=O)c12 [(1-Aminooxalyl-3-biphenyl-2-ylmethyl-2-isopropyl-indolizin-8-yloxy)-acetic acid methyl ester]

SMILES	IC50 (Phospholipase A2)	IC50 [1]
CCc1c(CC(N)=O)c2c(OCC(O)CC)cccn2c1Cc1cccc(Cl)c1 (centres undefined) [2-[3-(3-Chloro-benzyl)-2-ethyl-8-(2-hydroxy-butoxy)-indolizin-1-yl]-acetamide]	19000 nM	–
